According to patent publication US20220265629A1, “TREATMENT OF SYSTOLIC DYSFUNCTION AND HEART FAILURE WITH REDUCED EJECTION FRACTION WITH THE COMPOUND (R)-4-(1-((3-(DIFLUOROMETHYL)-1-METHYL-1H-PYRAZOL-4-YL)SULFONYL)-1-FLUOROETHYL)-N-(ISOXAZOL-3-YL)PIPERIDINE-1-CARBOXAMIDE” (MyoKardia, Inc., priority 2019, published 2022):
In brackets after ≈: the same amount, converted by molar mass. Where two headings read alike, the source gives them in different places.

What was measured:
healthy subjects = test: Single ascending oral dose study in healthy volunteers: transthoracic echocardiography (TTE) pharmacodynamics; type: in vivo, human
Procedure: To assess pharmacodynamic effects, serial echocardiograms were performed. The sonographers used in the study completed Echo protocol training and submitted an example of a study for evaluation to the core laboratory for evaluation. The core TTE lab certified that the sonographer was able to perform the TTEs at a level satisfactory for obtaining the required protocol data.
These criteria were chosen to prevent subjects from having prolongation of SET that might lead to myocardial ischemia. Dose escalation stopping criteria also included observation of a Baseline-corrected, group mean relative increase of >20% in any 2 sequential TTE assessments in at least 2 measures of LV contractility: LVOT-VTI, LVFS, LVEF, or LVSV in subjects receiving Compound I. Placebo-controlled evaluation may have been considered. For this comparison, subjects who received placebo may have been pooled across cohorts.
SET as determined by TTE was assessed using summary statistics. Observations and change from Baseline were summarized by treatment at each time point and the maximum change from Baseline determined for each subject. In addition, categorical analyses were performed on the number of subjects with a change from Baseline>50 msec and the number of subjects with a change from Baseline>75 msec in 1 or any 2 sequential TTE assessments. The relationship to Compound I plasma concentration to SET was explored. An analysis of SET placebo-adjusted change from Baseline was also performed.
As the Cmax occurred at between 4 and 6 hours in most of the subjects, the TTE obtained at 6 hours postclose was considered the best timepoint to explore the relationship between concentration and pharmacological effect. TTEs obtained at 1.5 and 3 hours after dosing were before the Cmax and at 9 hours were after the peak Cmax. Based on the preclinical data, it was considered unlikely that there would be a prolonged lag between the Cmax and peak pharmacological effect. As the exposure after the administration of the 350 mg and 525 mg doses were very similar, it was decided to not only present the results from these groups separately, but also to combine the data from these groups. By combining the data from the 2 groups, the number of subjects closed was increased from 6 to 12, thus increasing the power to observe a statistically significant change from Baseline in the TTE parameters of interest.
An analysis of placebo-corrected change from Baseline at 6 hours postclose by Compound I plasma concentration bins is presented in Table 6 below.

[1] = Physicochemical and biopharmaceutical properties of the drug substance (PBPK model input); settings: for blood plasma ratio: blood and plasma
Description: A PBPK mechanistic absorption model was developed by integrating (1) physicochemical and biopharmaceutical properties obtained from in vitro experimental measurements or in silico estimates based on chemical structure using ADMET Predictor (version 7.2) in GastroPlus (Version 9.6); (2) formulation properties of the drug product such as drug substance particle size distribution, formulation type, and rate of release or dissolution; (3) compartmental model kinetic parameters such as systemic clearance, volume of distribution, and inter-compartmental rate constants; and (4) gut physiology parameters such as gastro-intestinal (GI) transit time, pH, absorptive surface area, compartment dimensions and fluid content. The preexisting physiological parameters in GastroPlus (Version 9.6) for American healthy volunteers and beagle dogs under fasted conditions were used without modification.

[2] = 6 hours post-dose, plasma 1001-2000 ng/mL
[3] = 6 hours post-dose, plasma >2000 ng/mL
[4] = concentration exceeded 2000 ng/mL (median 2592 ng/mL)
[5] = plasma concentrations >2000 ng/mL, 6 hours postdose
[6] = crystalline free-base drug substance

Structure (SMILES): Cn1cc(S(=O)(=O)[C@@](C)(F)C2CCN(C(=O)Nc3ccon3)CC2)c(C(F)F)n1 [Compound I, (R)-4-(1-((3-(difluoromethyl)-1-methyl-1H-pyrazol-4-yl)sulfonyl)-1-fluoroethyl)-N-(isoxazol-3-yl)piperidine-1-carboxamide]
- Peak E placebo-corrected change from Baseline (LS mean difference) (healthy subjects; [2]): -1.43 cm/s
- SBP placebo-corrected change from Baseline (LS mean difference) (healthy subjects; [2]): 1.132 mm Hg
- SET placebo-corrected change from Baseline (LS mean difference) (healthy subjects; [2]): 23.049 ms
- Stroke Volume placebo-corrected change from Baseline (LS mean difference) (healthy subjects; [2]): 2.509 mL
- DBP placebo-corrected change from Baseline (LS mean difference) (healthy subjects; [3]): 1.540 mm Hg
- E/A ratio placebo-corrected change from Baseline (LS mean difference) (healthy subjects; [3]): −0.047
- E/e′(lateral) placebo-corrected change from Baseline (LS mean difference) (healthy subjects; [3]): −0.063
- HR placebo-corrected change from Baseline (LS mean difference) (healthy subjects; [3]): 2.871 bpm
- IVCT placebo-corrected change from Baseline (LS mean difference) (healthy subjects; [3]): 6.115 ms
- IVRT placebo-corrected change from Baseline (LS mean difference) (healthy subjects; [3]): 11.986 ms
- LVEDD placebo-corrected change from Baseline (LS mean difference) (healthy subjects; [3]): −0.115 cm
- LVEDV placebo-corrected change from Baseline (LS mean difference) (healthy subjects; [3]): -9.678 mL
- LVEF placebo-corrected change from Baseline (LS mean difference) (healthy subjects; [3]): 3.219%
- LVESD placebo-corrected change from Baseline (LS mean difference) (healthy subjects; [3]): −0.306 cm
- LVESV placebo-corrected change from Baseline (LS mean difference) (healthy subjects; [3]): -6.031 mL
- LVFS placebo-corrected change from Baseline (LS mean difference) (healthy subjects; [3]): 6.289%
- LVGCS placebo-corrected change from Baseline (LS mean difference) (healthy subjects; [3]): −2.854%
- LVGLS placebo-corrected change from Baseline (LS mean difference) (healthy subjects; [3]): −1.779%
- MPI placebo-corrected change from Baseline (LS mean difference) (healthy subjects; [3]): 0.033
- PEP placebo-corrected change from Baseline (LS mean difference) (healthy subjects; [3]): -2.131 ms
- Peak A placebo-corrected change from Baseline (LS mean difference) (healthy subjects; [3]): 657000 ×10⁻⁶ cm/s
- Peak E placebo-corrected change from Baseline (LS mean difference) (healthy subjects; [3]): -5.3 cm/s
- SBP placebo-corrected change from Baseline (LS mean difference) (healthy subjects; [3]): −1.572 mm Hg
- SET placebo-corrected change from Baseline (LS mean difference) (healthy subjects; [3]): 25.645 ms
- Stroke Volume placebo-corrected change from Baseline (LS mean difference) (healthy subjects; [3]): 8.197 mL
- LVEDD, mean decrease (healthy subjects; [4]): 0.12 cm
- LVEDV, mean decrease (healthy subjects; [4]): 9.68 mL
- LVEF, mean absolute increase (healthy subjects; [4]): 3.2%
- LVESD, mean decrease (healthy subjects; [4]): 0.31 cm
- LVESV, mean decrease (healthy subjects; [4]): 6.03 mL
- LVFS, mean absolute increase (healthy subjects; [4]): 6.3%
- LVGCS, mean absolute decrease (healthy subjects; [4]): 2.85%
- LVGLS, mean absolute decrease (healthy subjects; [4]): 1.78%
- LVSV, mean increase (healthy subjects; [4]): 8.2%
- SET, mean increase (healthy subjects; [4]): 25.7 ms
- diastolic function/relaxation (E/A ratio and E/e′) (healthy subjects; plasma concentrations >2000 ng/mL): no significant effects
- SET, placebo-corrected change from Baseline (LS mean difference±SE) (healthy subjects; plasma concentrations >2000 ng/mL (median 2425 ng/mL), 6 hours postdose): 25.6 ± 7.71 ms
- IVRT (mitral inflow doppler), placebo-corrected change from Baseline (LS mean difference±SE) (healthy subjects; [5]): 12.0 ± 3.92 ms
- LVEDV, placebo-corrected change from Baseline (LS mean difference±SE) (healthy subjects; [5]): -9.68 ± 2.95 mL
- LVEF, placebo-corrected change from Baseline (LS mean difference±SE) (healthy subjects; [5]): 3.22±1.48%
- LVESD, placebo-corrected change from Baseline (LS mean difference±SE) (healthy subjects; [5]): −0.306±0.077 cm
- LVESV, placebo-corrected change from Baseline (LS mean difference±SE) (healthy subjects; [5]): -6.03 ± 1.87 mL
- LVFS, placebo-corrected change from Baseline (LS mean difference±SE) (healthy subjects; [5]): 6.29±1.55%
- LVGCS, placebo-corrected change from Baseline (LS mean difference±SE) (healthy subjects; [5]): -2.85 ± 0.99%
- LVGLS, placebo-corrected change from Baseline (LS mean difference±SE) (healthy subjects; [5]): -1.78 ± 0.76%
- stroke volume, placebo-corrected change from Baseline (LS mean difference±SE) (healthy subjects; [5]): 8.20 ± 3.99 mL
- Biopharmaceutics Classification System (BCS) class [1]: Class II
- solubility ([1]; aqueous buffer, 37° C., across pH 1.2-9.6): ~43 µg/mL (≈ 98.8 µM)
- blood plasma ratio ([1]; Dog, in vitro measured, read-out: B:P (Dog), ratio of concentration of drug in blood to plasma): 0.8
- blood plasma ratio ([1]; Human, in vitro measured, read-out: B:P (Human), ratio of concentration of drug in blood to plasma): 0.85
- hygroscopicity [1, 6]: nonhygroscopic
- solubility in aqueous media [1, 6]: practically insoluble
- Papp ([1]; human, Caco-2, in vitro measured, read-out: Permeability, Caco-2): 17.9 ×10⁻⁶ cm/s
- logD ([1]; pH 7.4, Measured): 3.07
